In the assay the target is Gamma-secretase. Put plainly: Inhibition of human gamma secretase assessed as reduction in Abeta42 production. It counts as protein-complex assay.

`Cc1cc(N2C[C@H]3CC[C@@H](C2)[C@@H]3Nc2nc3n(n2)CCC[C@H]3Oc2cc(F)cc(Cl)c2)ncn1`: the 50% inhibitory concentration (IC50) was 8.1 nM.
For `Cc1cc(N2C[C@H]3CC[C@@H](C2)[C@@H]3Nc2nc3n(n2)CCC[C@H]3Oc2cccc(Cl)c2)ncn1`, the IC50 was determined as 9.9 nM.
Turning to `Cc1cc(N2C[C@H]3CC[C@@H](C2)[C@@H]3Nc2nc3n(n2)CCC[C@H]3Oc2ccc(Cl)cc2)ncn1`, the half-maximal inhibitory concentration (IC50) turned out to be 10.3 nM.
In the case of `Cc1cc(N2C[C@H]3CC[C@@H](C2)[C@@H]3Nc2nc3n(n2)CCC[C@H]3Oc2cc(Cl)cc(Cl)c2)ncn1` it was 6.6 nM; in that of `COc1cc(N2C[C@H]3CC[C@@H](C2)[C@@H]3Nc2nc3n(n2)CCC[C@H]3Oc2cc(F)cc(Cl)c2)cnn1`, 6.3 nM; in that of `COc1cc(N2C[C@H]3CC[C@@H](C2)[C@@H]3Nc2nc3n(n2)CC[C@H]3Oc2cc(F)cc(Cl)c2)cnn1`, 8.1 nM.

The values above are taken from ChEMBL document CHEMBL4725457, “Novel Bicyclic Heteroaryl Compounds as γ-Secretase Modulators for Treating Alzheimer's Disease” (ACS Med Chem Lett, 2020).
